In patent publication US20150359757A1, “A METHOD FOR IMPROVING THE WELLBEING OF AN ANIMAL USING A COMPOSITION INCLUDING VITAMIN K” (priority 2013, published 2015):

Key:
[1] = complete feed formulation of multivitamins, choline chloride and trace mineral premix; room temperature; 4 months; cited from earlier work
chickens = assay: Chickens hatched from breeder layer eggs, bone density and bone ash, Example 15; type: in vivo
Description: An experiment was conducted with laying birds and broilers: • A) Chickens hatched from the breeder layer eggs (fed 580 mg/tonne of formulated vitamin KQ) contained 50-100 ug Vitamin K1 per egg from day 1 (Example 2); • B) Chickens hatched from the breeder layer eggs were fed 4 gm/tonne vitamin K3 from day 1 contained 4-10 ug vitamin K1 per egg from day 1.
1000 chickens from each group were slaughtered at day 35 and X-rayed.

animals = details: cited from earlier work
layer hens = assay: Caged layer fatigue, X-ray bone density in layer hens, Example 12; type: in vivo
chickens (broilers) = assay: Broiler chicken feeding experiment, Example 11; type: in vivo
Description: An experiment was conducted with chickens (broilers). 41,000 chickens were in a control group and were fed 4 gm/tonne vitamin K3. 41,000 thickens were in an experimental group and fed on experimental diet of 580 mg of Vitamin KQ (Example 2) formulated per tonne of food. Results were determined after the chickens were 30 days old.

laying birds = assay: Old laying birds feeding experiment, Example 14; type: in vivo
Description: An experiment was conducted with old laying birds aged 21 weeks. 20,000 birds were given 580 mg formulated vitamin KQ/tonne of food (Example 2), instead of the control diet of 4 gm/tonne Vitamin K3.

prothrombin synthesis = details: in animals; cited from earlier work
turkeys = assay: Turkey feeding experiment, Example 8; type: in vivo
Description: An experiment was conducted in turkeys. In this experiment all diets used in this study were identical in nutrients, the only difference being that the control diets contained 4 gm/tonne K3 and the experimental diet contained the formulated vitamin KQ at 580 mg/tonne or per 1000 L.
Three groups of 5000 turkeys (15000 turkeys per farm) were used. In the control groups 1 and 3 were fed Vitamin K3 (4 gm/tonne of food). Experimental group 2 was fed Vitamin KQ (580 mg formulated K1/K2/Example 2/tonne of food). 200 turkeys from each group were then weighed at 10 weeks.

ducks = assay: Duck rearing/fattening trial, Example 16; type: in vivo; details: up until the 10th week, KQ 580 mg or K3 4 gm per 1000 L water
Description: An experiment was conducted with ducks. In the duck's rearing/fattening a similar experience was found as with chickens and turkeys with respect to observations of weight, welfare and behaviour. Duration of trial: 16 weeks • Age: Supplemented from day 7 onwards • Amount: 7,500 birds • Experimental Group: 3,500 birds • Control Group: 4,000 birds • Dosage: Treatment 580 mg KQ per 1000 L water (Example 2). Control 4 gm vitamin K3 per 1000 L water • Dosage given for 24 hours 3× per week.

[2] = system: calcium transfer from luman-blood; details: chickens, 2.5 umole of menadione/kg (430 ugK3/Kg bwt.); cited from earlier work
[3] = system: carboxylation of endogenous precursors; details: cited from earlier work
[4] = from vegetable sources, humans; cited from earlier work

## CC1(S(=O)(=O)O)CC(=O)c2ccccc2C1=O.Cc1cc(C)[nH]c(=O)n1 (stereo not drawn) [MPB, menadione dimethyl-pyrimidol bisulphite]
[1]
  retained (stability): 57%

## CC1(S(=O)(=O)[O-])CC(=O)c2ccccc2C1=O.[Na+] (stereo not drawn) [MSB, menadione sodium bisulphite]
[1]
  retained (stability): 33%

## CC1=CC(=O)c2ccccc2C1=O [Vitamin K3, menadione]
chickens; chickens hatched from breeder layer eggs, slaughtered at day 35, K3 4 gm/tonne, KQ 580 mg/tonne of feed
  bone density as RBAE (Radiographic bone aluminium equivalents), Day 35: 3.64 mm
chickens; chickens slaughtered at day 35
  Bone Ash: 35%
chickens; day 35
  bone ash relative to that of Vitamin KQ: 83%
  bone density relative to that of Vitamin KQ: 60%
animals; animals
  dose at which toxic levels are reached: 0.5 mg/kg
animals; relative to vitamin K1
  more toxic than vitamin K1: at least 50 ×
Layer hens; Day 27 to Day 35, 250 ug/bird/day
  Change % of RBAE bone density: −5.4%
Layer hens; layer hens
  effect on bone growth / strength (observation): deceased bone growth
  effect on caged layer fatigue (loss of bone density): failed to prevent the disease
Layer hens; layer hens, 250 ug/bird/day, Day 27
  bone density as RBAE (Radiographic bone aluminium equivalents), Day 27: 3.85 mm
Layer hens; layer hens, 250 ug/bird/day, Day 35
  bone density as RBAE (Radiographic bone aluminium equivalents), Day 35: 3.64 mm
Chickens (broilers); broilers
  Dropsy: 0.36%
  Marketable animals according an official poultry meat inspector: 95.25%
  Marketable feet A quality: 81.37%
  Skin infections: 3.65%
Chickens (broilers); of 41,000 birds slaughtered
  birds with broken bones at slaughter: 3200 birds
Laying birds; 20,000 birds, KQ 580 mg/tonne, K3 4 gm/tonne of food
  eggs per day: 14,800 eggs per day
Laying birds; age of layers 2 weeks
  % eggs layed: 92%
Laying birds; age of layers 21 weeks
  % eggs layed: 92%
Laying birds; age of layers 60 weeks
  % eggs layed: 74%
Laying birds; age of layers 90 weeks
  % eggs layed: 54%
Prothrombin synthesis
  effect on prothrombin synthesis, times lower: approximately 100 times
turkeys; turkeys
  E. coli / colibacillus infection (observation): colibacillus infection was evident
turkeys; turkeys at 10 weeks, K3 4 gm/tonne of food
  weight deviation: up to 1.2 kg
turkeys; turkeys at 10 weeks, KQ 580 mg/tonne, K3 4 gm/tonne of food
  average weight: 6.97 kg
ducks
  feather picking (observation): extensive feather picking
[2]
  duration of inhibition of calcium transfer: 6 to 10 h
  time to inhibition of calcium transfer: ≤ 30 min

## CC1=C(C/C=C(\C)CCC[C@H](C)CCC[C@H](C)CCCC(C)C)C(=O)c2ccccc2C1=O [vitamin K1, phylloquinone]
animals; animals
  dose consumed that does not result in any toxicity: 25 gm/kg
[3]
  relative activity versus menadione Vitamin K3: 4 times
[4]
  bioavailability: 4.7-15%
